The subject of assay [1] is streptozotocin-induced diabetic rats. Further details: method as in Huang et al., 2010. The settings on record: intravenous injection, ref Huang et al., 2010; cited from earlier work.
Assay [2] deals with intestinal inflammation model. Further details: method as in Carrillo-Ocampo et al., 2013. The settings on record: ref Carrillo-Ocampo et al., 2013; cited from earlier work.
The test system of assay [3] is tyrosine phosphatase SHP-1. Further details: method as in Pesce et al., 2015. The settings on record: U937 cell line; ref Pesce et al., 2015; cited from earlier work.
Assay [4] has as its system LPS-induced NO production in RAW 264.7 cell. The experiment in a line: Nitric oxide assay (Griess test), LPS-induced NO production. Type of assay: cell-based. The settings on record: Mus musculus; RAW264.7 cell, LPS 1 μg/mL, positive control, n = 5; read-out: IC50 of inhibitory activity on LPS-induced NO production. On the procedure:
RAW 264.7 mouse macrophages were cultured in high glucose DMEM supplemented with 10% FBS and a mixture of penicillin and streptomycin. The cells were maintained in a humidified incubator with an atmosphere of 5% CO2 at 37°C. RAW 264.7 cells were plated at a density of 5 × 10^5 cells/mL in 24-well plates, cultured for 12 h, and then treated with LPS (1 μg/mL) and incubated for 4 h. Thereafter, the cells were treated with different concentrations (25, 50, 100, 200, and 400 μg/mL) of C. daurica extracts (water, n-butanol, ethyl acetate, and petroleum-ether extracts) and incubated for an additional 20 h. […] The amount of NO in the medium was detected using the Griess test. One hundred microliters of each supernatant were mixed with equal volume of Griess reagent (1% sulfanilamide in 5% phosphoric acid and 0.1% naphthylethylenediamine dihydrochloride in water). The absorbance of the mixture at 550 nm and concentration of nitrite were determined using serially diluted sodium nitrite as the standard ([Qiao et al., 2005]).

Consider `OC[C@H]1O[C@@H](O[C@@H]2OC=C[C@H]3[C@H](O)[C@@H]4O[C@]4(CO)[C@@H]23)[C@H](O)[C@@H](O)[C@@H]1O` [Compound 1, catalpol], for which the anti-hyperglycemic activity result in assay [1] is recorded as “exhibited anti-hyperglycemic activity in a dose-dependent manner”.
`C[C@@H]1O[C@@H](O[C@@H]2[C@@H](O)[C@H](OCCc3ccc(O)c(O)c3)O[C@H](CO)[C@H]2OC(=O)/C=C/c2ccc(O)c(O)c2)[C@H](O)[C@H](O)[C@H]1O` [Compound 7, verbascoside]: the “presence of pro-inflammatory molecules” value in assay [2] is reported as “decreased the presence of pro-inflammatory molecules”. In addition, the “activity of tyrosine phosphatase SHP-1” value in assay [3] is listed as “increasing the activity of tyrosine phosphatase SHP-1”.
By IC50 is commonly meant the point on the concentration scale where inhibition reaches its midpoint. Take `COc1ccc2c(c1)c(CC(=O)O)c(C)n2C(=O)c1ccc(Cl)cc1` [Indomethacin]: the IC50 in assay [4] is 60 ± 0.8 µM.
